Laboratory results reported in PubChem BioAssay (NCI).
Several values for one entry are separate records, joined by “and”; a condition that tells them apart may be missing. Equal values may be shown once.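 Each compound was tested at five concentrations against cells in 96-well plates for 48 hours. GI50 = concentration required for 50% inhibition of growth. At the TGI there is no net growth.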

Tests used:
Assay in all cases: NCI-60 cell line screen, 48 h
786-0 renal = system: 786-0 renal
M14 melanoma = system: M14 melanoma
MCF7 breast = system: MCF7 breast
MDA-MB-231 breast = system: MDA-MB-231 breast
NCI-H226 lung = system: NCI-H226 lung
NCI-H460 lung = system: NCI-H460 lung
OVCAR-8 ovarian = system: OVCAR-8 ovarian
SF-268 CNS = system: SF-268 CNS
SK-MEL-28 melanoma = system: SK-MEL-28 melanoma
SW-620 colon = system: SW-620 colon

SMILES	GI50 (786-0 renal) [µM]	TGI (786-0 renal)	GI50 (M14 melanoma) [µM]	TGI (M14 melanoma)	GI50 (MCF7 breast) [µM]	TGI (MCF7 breast)	GI50 (MDA-MB-231 breast) [µM]	TGI (MDA-MB-231 breast)	GI50 (NCI-H226 lung) [µM]	TGI (NCI-H226 lung)	GI50 (NCI-H460 lung) [µM]	TGI (NCI-H460 lung)	GI50 (OVCAR-8 ovarian) [µM]	TGI (OVCAR-8 ovarian)	GI50 (SF-268 CNS)	TGI (SF-268 CNS)	GI50 (SK-MEL-28 melanoma)	TGI (SK-MEL-28 melanoma)	GI50 (SW-620 colon) [µM]	TGI (SW-620 colon)
O=C1OC(C(O)CO)C(=O)C1=O (centres undefined)	3170	8770 µM	6700	> 10000 µM	2350	5860 µM	2720	> 10000 µM	> 10000	> 10000 µM	3540	> 10000 µM	5270	> 10000 µM	2720 µM	6600 µM	> 10000 µM	> 10000 µM	2070	5080 µM
NS(=O)(=O)c1ccc(NC2(C(=O)O)CCCC2)cc1	–	> 100 µM	–	> 100 µM	–	> 100 µM	–	> 100 µM	–	> 100 µM	–	> 100 µM	–	> 100 µM	–	> 100 µM	–	> 100 µM	–	> 100 µM
Cn1c2c(c3ccccc31)CC1c3c(c4ccccc4n3C)CC21 (centres undefined)	–	> 100 µM	–	> 100 µM	–	> 100 µM	–	> 100 µM	–	> 100 µM	–	> 100 µM	–	> 100 µM	–	> 100 µM	–	> 100 µM	–	> 100 µM
COc1cc2ncnc(Nc3ccc(C)c(O)c3)c2cc1OC	11.4	> 25 µM	18.8	> 25 µM	> 25	> 25 µM	17.1	> 25 µM	20.5	> 25 µM	> 25	> 25 µM	11.2	> 25 µM	> 19.2 µM	> 25 µM	> 25 µM	> 25 µM	> 25	> 25 µM
CN1CCN(CCCOc2ccc3nc(Nc4ccc(Cl)c(C(F)(F)F)c4)ccc3c2)CC1	13.9	28.2 µM	12.7	26.1 µM	4.94	22 µM	7.59	23.1 µM	22.2	57.1 µM	16.4	39.1 µM	16.4	32.4 µM	14.1 µM	30 µM	13.8 µM	29.2 µM	8.97	22.1 µM
COc1ccc(/C=C/c2ccnc3ccccc23)c(OC)c1	–	> 10 µM	–	> 10 µM	–	> 10 µM	–	> 10 µM	–	> 10 µM	–	> 10 µM	–	> 10 µM	–	> 10 µM	–	> 10 µM	–	> 10 µM
CC(C)n1nc(-c2cc3cc(O)ccc3[nH]2)c2c(N)ncnc21	0.294	2.88 µM	0.151	1.8 µM	0.128	7.86 µM	0.296	17.4 µM	0.117	1.31 µM	0.127	9.38 µM	0.314	3.21 µM	0.224 µM	4.78 µM	0.12 µM	1.67 µM	1.31	14.2 µM
CCCCC(O)(c1ccc(Cl)cc1)C(CN1CCOCC1)c1ccc(Cl)cc1 (centres undefined)	13.6	27.5 µM	13.8	33.4 µM	10.6	24.5 µM	12.7	27.7 µM	11.8	28.8 µM	10.7	25.7 µM	15.7	42 µM	12.6 µM	27.2 µM	15.9 µM	33.9 µM	11.5	25.3 µM
c1cc(CNC23CC4CC(CC(C4)C2)C3)cc(C[N+](Cc2cccc(CNC34CC5CC(CC(C5)C3)C4)c2)(Cc2cccc(CNC34CC5CC(CC(C5)C3)C4)c2)Cc2cccc(CNC34CC5CC(CC(C5)C3)C4)c2)c1 (centres undefined)	3.55	7.75 µM	3.36	8.69 µM	4.46	25.9 µM	8.73	31 µM	11.5	45.3 µM	4.97	11.3 µM	8.64	35.4 µM	6.39 µM	22.6 µM	6.94 µM	33.1 µM	5.23	16.5 µM
Cc1cn(C2CC(N(O)Cc3ccccc3)C(CO[Si](C)(C)C(C)(C)C)O2)c(=O)[nH]c1=O (centres undefined)	–	30.1 µM and 31.1 µM	–	39 µM and 30.6 µM	–	> 100 µM and 35.1 µM	–	32.6 µM and 31.3 µM	–	35.6 µM and 36.9 µM	–	33.3 µM and 32.2 µM	–	84.1 µM and 32 µM	34.6 µM and 16.7 µM	> 100 µM and 31 µM	37.5 µM and 16.9 µM	> 100 µM and 30.8 µM	–	69.2 µM and 34.1 µM
COc1cc2nc3cc([N+](=O)[O-])ccc3c(NCCCNCCO)c2cc1OC	0.239	0.896 µM	0.205	0.437 µM	0.12	0.626 µM	0.13	0.374 µM	0.196	0.505 µM	0.264	0.624 µM	0.202	0.721 µM	0.126 µM	0.478 µM	–	–	0.21	1.03 µM
Cc1cccc(N2CCN(C(=S)c3ccc4c(c3)OCO4)CC2)c1	7.97	> 100 µM	0.463	> 100 µM	0.571	> 100 µM	0.861	> 100 µM	41	> 100 µM	0.472	37.5 µM	1.81	> 100 µM	3.85 µM	> 100 µM	2.19 µM	> 100 µM	0.467	> 100 µM
Cc1ccc(C(=O)CN(/C=C/C(=O)C(F)(F)F)c2ccc(S(N)(=O)=O)cc2)cc1	> 100	> 100 µM	> 100	> 100 µM	59.8	> 100 µM	> 100	> 100 µM	> 100	> 100 µM	> 100	> 100 µM	61.2	> 100 µM	> 100 µM	> 100 µM	> 100 µM	> 100 µM	> 100	> 100 µM
COc1cc2c3c(n(CCCNC(=O)OCC4c5ccccc5-c5ccccc54)c(=O)c2cc1OC)-c1cc2c(cc1/C3=C\CCNC(=O)OCC1c3ccccc3-c3ccccc31)OCO2	> 16.2	> 29.8 µM	> 25.3	> 50 µM	–	> 18.5 µM	> 19	> 44 µM	> 50	> 50 µM	> 50	> 50 µM	> 35.3	> 50 µM	1.48 µM	> 14 µM	> 50 µM	> 50 µM	> 24.1	> 50 µM
